The record followed here is US9725457B2, “6-amido derivatives of 4, 5-a epoxymorphinans for the treatment of pain” (Sloan-Kettering Institute for Cancer Research, priority 2010, dated 2017).

The test system of series [1] is mice. The series can be described thus: Tolerance studies and effects of chronic administration (cross tolerance, precipitated withdrawal). On the procedure: Tail-flick latencies were determined before and 30 minutes after each injection. See Gistrak et al. (1989) op. cit. […] Similarly, a group of mice (n=10) were made tolerant to test compound by twice daily injections to 1 mg/kg, s.c. for 10 days. […] Animals were evaluated for signs of diarrhea and jumping. See Gistrak et al. (1989) op. cit.

The target of series [2] is kappa3 opioid receptor (Mus musculus, UniProt P42866). The series can be described thus: Kappa3 opioid receptor competition binding in whole brain membrane homogenates. The protocol:
(§1) Receptor-Binding Assays: Competition-binding assays in MOR-CHO (mu), DOR-CHO (delta) and KOR-CHO (kappa) were performed at 25° C. in 50 mM potassium phosphate buffer, pH 7.4, containing 5 mM magnesium sulfate (only in the case of CHO-MOR). Specific binding was defined as the difference between total binding and nonspecific binding, determined in the presence of 8 μM levallorphan. 125I-SMGP1 (IBNtxA) was used as the universal radioligand to determine the relative affinity of drugs in MOR1-CHO, KOR1-CHO and DOR1-CHO. Protein concentrations were generally 20-40 μg/mL, incubation times were 90 minutes for all assays. (Majumdar et al., Bioorg Med Chem Lett. 2011, 21(13), 4001-4004). Kappa3 opioid receptor competition binding assays were carried out in whole brain membrane homogenates, performed at 25° C. in 50 mM potassium phosphate buffer, pH 7.4, containing 5 mM magnesium sulfate for 90 minutes in presence of 100 nM CTAP, 100 nM U50488h and 100 nM DPDPE. ^125I-SMGP1 was used as the radioligand in the assays, typically 500 micrograms of protein and 0.15 nM of the radioligand was used in a 0.5 mL assay. Specific binding was defined as the difference between total binding and nonspecific binding, determined in the presence of 8 μM levallorphan. Protein concentration was determined as described by Lowry et al. [J Biol Chem 1951, 193, 265-275; (1951)] using bovine serum albumin as the standard. Kd, Bmax, and Ki values were calculated by nonlinear regression analysis (GraphPadPrism). […] The “kappa3 opioid receptor” as referred to herein is the receptor first characterized by Clark et al. [J. Pharmacol. Exp. Ther. 251, 461-468 (1989)].

For series [3], the system named is mice. The series is described as follows: Gastrointestinal motility (charcoal meal transit) assay. The series is classed as in vivo. On the procedure: Gastrointestinal motility assay: Gastrointestinal transit was determined as described by Paul and Pasternak [Eur. J. Pharmacol. 149 (1988), pp. 403-404.)]. In brief, after withholding food for 8 hours, animals received the indicated drug and then were given a charcoal meal (0.2 mL; 10% of purified charcoal and 2.5% of gum tragacanth, w/v) by gavage and were sacrificed 30 min later. The distance traveled by the charcoal meal was then measured and reported in centimeters.

For series [4], the target named is T1, KOR (kappa opioid receptor), KOR1-CHO (Mus musculus, UniProt P33534).
T1 construct: expressed in transfected cells; host or cells: CHO
The series can be described thus: Competition binding in KOR-CHO, 125I-SMGP1 radioligand. On the procedure: as §1

Series [5] deals with T2, DOR (delta opioid receptor), DOR1-CHO (Mus musculus, UniProt P32300).
T2 construct: expressed in transfected cells; host or cells: CHO
The series can be described thus: Competition binding in DOR-CHO, 125I-SMGP1 radioligand. On the procedure:
Receptor-Binding Assays: Competition-binding assays in MOR-CHO (mu), DOR-CHO (delta) and KOR-CHO (kappa) were performed at 25° C. in 50 mM potassium phosphate buffer, pH 7.4, containing 5 mM magnesium sulfate (only in the case of CHO-MOR). Specific binding was defined as the difference between total binding and nonspecific binding, determined in the presence of 8 μM levallorphan. […] Protein concentrations were generally 20-40 μg/mL, incubation times were 90 minutes for all assays. […] Specific binding was defined as the difference between total binding and nonspecific binding, determined in the presence of 8 μM levallorphan. […] Kd, Bmax, and Ki values were calculated by nonlinear regression analysis (GraphPadPrism).

Series [6] has as its target T3, MOR (mu opioid receptor), MOR1-CHO (Mus musculus, UniProt P42866).
T3 construct: expressed in transfected cells; host or cells: CHO
The series is described as follows: Competition binding in MOR-CHO, 125I-SMGP1 radioligand. The protocol:
as §1

Series [7] has as its system mice. The series can be described thus: Radiant heat tail flick analgesia assay. The settings on record: for ED50: Mus musculus, male CD-i mice, radiant heat tail-flick. The series is classed as in vivo. On the procedure: Tail Flick Analgesia Assays: Male CD-i mice (25-35 g; Charles River Breeding Laboratories, Wilmington, Mass.) were maintained on a 12-hr light/dark cycle with Purina rodent chow and water available ad libitum. Mice were housed in groups of five until testing. Analgesia was determined using the radiant heat tail-flick technique [D'Amour and Smith, J. Pharmacol. Exp. Ther. 72: 74-79 (1941)]. For the tail-flick assay, the latency to withdraw the tail from a focused light stimulus was measured electronically using a photocell. […] Post-treatment tail-flick latencies were determined as indicated for each experiment, and a maximal latency of 10 sec for tail-flick was used to minimize tissue damage. All experiments were replicated at least twice with each group in each experiment containing at least 10 mice and the combined results of all replications presented.

Series [8] concerns mice. The series is described as follows: Respiratory depression assessment (MouseOx pulse oximeter). The following applies: CD1 mice. The protocol:
Respiratory Depression assessment: The MouseOx Pulse Oximeter system (Starr Life Sciences, Pittsburgh, Pa.) was used to assess respiratory rate in awake, freely-moving, adult male CD1 mice. For 30 minutes, each animal was habituated to the device using a blank collar, after which the oximeter collar was placed on the animal. A five-second average breath rate was assessed at 5 minute intervals. A baseline for each animal was obtained over a 25 minute period prior to drug injection; beginning 15 minutes post-injection, measurements were then taken for a period of 35 minutes.

pKi: −log10 of the molar value.

What is called pKi is the Ki on a negative log10 scale, so that one unit is a factor of ten. Read a high pKi as a small Ki. A word on the ED50: it is the dose that gives a 50% effect, or the effect in half of the subjects. The low end stands for greater potency, the high end for weaker potency. For the molecule `O=C(NC1CCC2(O)C3Cc4ccc(O)c5c4C2(CCN3CC2CC2)C1O5)c1cccc(I)c1` (stereo not drawn) [SMGP 1], the “physical dependence (withdrawal on challenge with an antagonist after chronic administration)” value in series [1] (chronic administration, challenge with antagonist) is “no physical dependence”. Also, the “tolerance with chronic administration” value in series [1] (chronic administration, mice) was “some tolerance”. For the same molecule, the “analgesic response in highly morphine tolerant mice” value in series [1] (highly morphine tolerant mice) is on record as “normal analgesic response”. The “cross tolerance to morphine” value in series [1] (mice) was “no cross tolerance to morphine”. In addition, the “affinity for the kappa3 site in words” value in series [2] is “high affinity”. Moreover, the “effect on the inhibition of gastrointestinal transit” value in series [3] was “minimal”. The pKi in series [4] is 10.52; in series [5], 9.62; in series [6], 9.96. Besides, the ED50 in series [7] is 0.53 mg/kg. The “analgesic potency in mice relative to morphine” value in series [7] (mice) is on record as “potency greater than morphine”. Also, the “respiratory depression as compared to saline” value in series [8] (2.5 mg/kg subcutaneously (five times the ED50)) is “no statistically significant depression”.
For `C=CCN1CCC23c4c5ccc(O)c4OC2C(NC(=O)C24CC6CC(CC(C6)C2)C4)CCC3(O)C1C5` (stereo not drawn) [SMGP 58], the pKi in series [4] was 8.15; in series [5], below 7.00; in series [6] it was 8.19. The same molecule displayed an ED50 in series [7] above 10 mg/kg.
The matching figures for `C=CCN1CC[C@]23c4c5ccc(O)c4O[C@H]2C(NC(=O)c2ccc(SC)cc2)CC[C@@]3(O)[C@H]1C5` (stereo partly drawn) [SMGP 59]: 8.44, 7.80, 9.10 and 5.43 mg/kg.
As to `C=CCN1CC[C@]23CCCC[C@H]2[C@H]1Cc1ccc(O)cc13` [levallorphan, reference compound], the “affinity for the kappa3 site in words” value in series [2] is reported as “high affinity”. Besides, the “reversal of the analgesia elicited by SMGP1 by an antagonist” value in series [7] (antagonist given against SMGP1 analgesia in mice) is listed as “effectively reversed”.
Consider `CN1CC[C@]23CCCC[C@H]2[C@H]1Cc1ccc(O)cc13` [levorphanol], for which the “affinity for the kappa3 site in words” value in series [2] was “high affinity”.
`CN1CC[C@]23c4c5ccc(O)c4O[C@H]2[C@@H](O)C=C[C@H]3[C@H]1C5` [morphine, reference compound] showed a respiratory depression in series [8] (20 mg/kg subcutaneously (five times the ED50)) of 50%.
